US11072628B2, “Nucleoside analogues for the treatment of parasitic infections” (UNIVERSITEIT GENT, priority 2017, dated 2021)
Where two headings read alike, the source gives them in different places.

How the values were obtained:
[1] = test system: T. brucei Squib 427; experiment: In vitro drug susceptibility, T. brucei Squib 427 (resazurin); assay type: cell-based, Trypanosoma brucei brucei
Experimental: (§1) All trypanosome strains were cultured in the standard HMI-9 medium supplemented with 10% fetal bovine serum (FBS) at 37° C. in a 5% CO2 atmosphere.

[2] = test system: T. vaginalis trophozoites (metronidazole susceptible G3 strain); experiment: Trichomonas vaginalis in vitro assay; assay type: cell-based; settings: average of 2-5 independent replicates
Experimental: T. vaginalis trophozoites (metronidazole susceptible G3 strain) were grown in vitro in modified Diamond's media (MDM) with 10% heat inactivated horse serum (HIHS) acquired from Gibco Life Technologies. After medium preparation, the pH was adjusted to 6.3-6.4 employing 1.0 M aq. HCl. Parasites cultures were passaged every day by taking 1 mL of cell culture into a 25 mL bottle of fresh media to ensure the cells were kept at the appropriate concentration of ˜2×10^6 cells/mL. The culture flasks were filled completely and tightly capped to provide the cells with an anaerobic environment. The parasites were maintained in incubation at 37° C. When culturing in multiwell plates, the plates were sealed with Nescofilm® and inserted in BD GasPak EZ pouches (BD Diagnostics, UK) in order to create anaerobic conditions. Assays were performed with 5×10^4 trophozoites/well (100 μL) to which compound dilutions were added (100 μL). Outside wells of columns and rows were filled with 200 μL of sterile water. Plates were sealed with Nescofilm® and incubated under anaerobic conditions as described above. After 24 h, 30 μL of assay dye solution (resorufin) was added, and incubated for 1-2 h before being read using Fluostar Optima (BMG Labtech, UK) at an excitation wavelength of 544 nm and an emission wavelength of 620 nm.

[3] = test system: T. b. rhodesiense STIB-900; experiment: In vitro drug susceptibility, T. b. rhodesiense STIB-900 (resazurin); assay type: cell-based, Trypanosoma brucei rhodesiense
Experimental: as §1

[4] = test system: T. cruzi Tulahuen CL2 β galactosidase strain; experiment: T. cruzi Tulahuen CL2 β galactosidase strain on MRC-5SV2 cells (CPRG); assay type: cell-based, Trypanosoma cruzi
Experimental: All cultures and assays were conducted at 37° C./5% CO2. […] The results were expressed as % reduction in parasite burdens compared to control wells from which an EC50 was calculated.

[5] = Cytotoxicity against MRC-5 fibroblasts; settings: human, MRC-5 fibroblasts, cytotoxicity
Experimental: (§2) Cytotoxicity was assayed against MRC-5 fibroblasts. Results are depicted in Tables 4 and 5.

[6] = test system: MRC-5 fibroblasts; experiment: Cytotoxicity against MRC-5 fibroblasts; settings: read-out: MRC-5 EC50, cytotoxicity
Experimental: as §2

[7] = Trypanosoma brucei, read-out: EC50 against T. brucei
[8] = Trypanosoma brucei, read-out: T.b. brucei EC50, Table 4, average of 2-6 independent determinations
[9] = Trypanosoma brucei, RHODESIENSE, read-out: T.b. rhod. EC50
[10] = Trypanosoma cruzi, TULAHUEN, MRC-5 SV2, Table 5, average of 2-4 independent replicates
[11] = Trypanosoma brucei, read-out: T. brucei brucei EC50, Table 1, average of 2-4 independent determinations
[12] = Trypanosoma brucei, RHODESIENSE, read-out: T. brucei rhod. EC50
[13] = Trypanosoma cruzi, TULAHUEN, MRC-5 SV2, Table 2, average of 2-3 independent replicates
[14] = Table 1, average of 2-4 independent determinations, read-out: T. brucei brucei EC50
[15] = Table 1, average of 2-4 independent determinations, read-out: T. brucei rhod. EC50
[16] = Table 2, average of 2-3 independent replicates

Compound | EC50 [1, 8] | EC50 ([2]; Trichomonas vaginalis, Table 6) | EC50 [3, 9] | melting point | EC50 [4, 10] | EC50 ([5]; MRC-5 EC50, Table 4) | EC50 ([5]; MRC-5 EC50, Table 5) | EC50 [1, 11] | EC50 [3, 12] | EC50 [4, 13] | EC50 ([5]; MRC-5 EC50, Table 1) | EC50 ([5]; MRC-5 EC50, Table 2) | further results
Nc1ncnc2c1c(-c1cccc(Cl)c1)cn2[C@@H]1O[C@H](CO)[C@@H](O)[C@H]1O [FH8459, 4-amino-5-(3-chlorophenyl)-N7-(β-D-ribofuranosyl)-pyrrolo[2,3-d]pyrimidine] | 9.9 µM | 0.24 µM | 6.88 µM | 135 °C | 1.42 µM | 32.8 µM | 32.8 µM | – | – | – | – | – | EC50 [1, 7]: < 10 µM
Nc1ncnc2c1c(-c1ccc(C(F)(F)F)cc1)cn2[C@@H]1O[C@H](CO)C[C@H]1O [FH9576, 4-amino-5-(4-trifluoromethylphenyl)-N7-(3′-deoxy-β-D-ribofuranosyl)-pyrrolo[2,3-d]pyrimidine] | – | – | – | – | – | – | – | 19.5 µM | 6.6 µM | 0.53 µM | 40 µM | 40 µM | EC50 ([2]; Trichomonas vaginalis, Table 3): 0.26 µM
COc1ccc(-c2cn([C@@H]3O[C@H](CO)C[C@H]3O)c3ncnc(N)c23)cc1 [FH8494, 4-amino-5-(4-methoxyphenyl)-N7-(3′-deoxy-β-D-ribofuranosyl)-pyrrolo[2,3-d]pyrimidine] | – | – | – | – | – | – | – | – | – | – | – | – | EC50 [1, 14]: 3.7 µM; EC50 ([2]; Table 3): 0.73 µM; EC50 [3, 15]: 1.2 µM; EC50 [4, 16]: 2.4 µM; EC50 ([6]; Table 1): 24.3 µM; EC50 ([6]; Table 2): 24.3 µM
Cc1ncc([N+](=O)[O-])n1CCO [Metronidazole, reference compound] | – | – | – | – | – | – | – | – | – | – | – | – | EC50 ([2]; Trichomonas vaginalis, Table 3): 0.53 µM
Nc1ncnc2c1c(-c1ccc(F)cc1)cn2[C@@H]1O[C@H](CO)[C@@H](O)[C@H]1O [MS1001, 4-amino-5-(4-fluorophenyl)-N7-(β-D-ribofuranosyl)-pyrrolo[2,3-d]pyrimidine] | 8.81 µM | 0.11 µM | 14.7 µM | 145 to 148 °C (dec.) | 0.49 µM | > 64 µM | > 64 µM | – | – | – | – | – | EC50 [1, 7]: < 10 µM
Nc1ncnc2c1c(-c1ccc(Cl)c(Cl)c1)cn2[C@@H]1O[C@H](CO)[C@@H](O)[C@H]1O [FH3147, 4-amino-5-(3,4-dichlorophenyl)-N7-(β-D-ribofuranosyl)-pyrrolo[2,3-d]pyrimidine] | 3.07 µM | 0.02 µM | 0.32 µM | 221 to 223 °C | 0.19 µM | 14.7 µM | 14.7 µM | – | – | – | – | – | selectivity index (SI) for T. b. brucei ([1]; MRC-5 versus T. b. brucei): ~5
Nc1ncnc2c1c(-c1ccccc1)cn2[C@@H]1O[C@H](CO)[C@@H](O)[C@H]1O [TH1004, 4-amino-5-phenyl-N7-(β-D-ribofuranosyl)-pyrrolo[2,3-d]pyrimidine] | 32.3 µM | 0.43 µM | 4.1 µM | – | 3.44 µM | 56.2 µM | 56.2 µM | – | – | – | – | – | –
Nc1ncnc2c1c(-c1ccc(OC(F)(F)F)cc1)cn2[C@@H]1O[C@H](CO)C[C@H]1O [FH9577, 4-amino-5-(4-trifluoromethoxyphenyl)-N7-(3′-deoxy-β-D-ribofuranosyl)-pyrrolo[2,3-d]pyrimidine] | – | – | – | – | – | – | – | – | – | – | – | – | EC50 [1, 14]: 24.5 µM; EC50 ([2]; Table 3): 0.79 µM; EC50 [3, 15]: 9.8 µM; EC50 [4, 16]: 1.39 µM; EC50 ([6]; Table 1): 40.4 µM; EC50 ([6]; Table 2): 40.4 µM
Nc1ncnc2c1c(-c1ccc3ccccc3c1)cn2[C@@H]1O[C@H](CO)[C@@H](O)[C@H]1O [FH8461, 4-amino-5-(2-naftyl)-N7-(β-D-ribofuranosyl)-pyrrolo[2,3-d]pyrimidine] | – | – | – | – | – | – | – | – | – | – | – | – | EC50 ([1]; Table 4, average of 2-6 independent determinations, read-out: T.b. brucei EC50): 7.83 µM; EC50 ([2]; Table 6): 0.58 µM; EC50 ([3]; Table 4, average of 2-6 independent determinations, read-out: T.b. rhod. EC50): 6.79 µM; EC50 ([4]; Table 5, average of 2-4 independent replicates): 2.48 µM; EC50 ([6]; Table 4): 7.53 µM; EC50 ([6]; Table 5): 7.53 µM
Nc1ncnc2c1c(-c1ccc(Cl)c(Cl)c1)cn2[C@@H]1O[C@H](CO)C[C@H]1O [FH8513] | – | – | – | – | – | – | – | 1.8 µM | 1.5 µM | 0.06 µM | 13.6 µM | 13.6 µM | EC50 ([2]; Trichomonas vaginalis, Table 3): 0.33 µM
Nc1ncnc2c1c(-c1cc(Cl)cc(Cl)c1)cn2[C@@H]1O[C@H](CO)[C@@H](O)[C@H]1O [FH8460, 4-amino-5-(3,5-dichlorophenyl)-N7-(β-D-ribofuranosyl)-pyrrolo[2,3-d]pyrimidine] | 8.17 µM | – | 3.66 µM | 219 °C | 1.72 µM | > 64 µM | > 64 µM | – | – | – | – | – | EC50 [1, 7]: < 10 µM
Nc1ncnc2c1c(-c1ccc(Cl)cn1)cn2[C@@H]1O[C@H](CO)[C@@H](O)[C@H]1O [MS1039, 4-amino-5-(5-chloro-pyrid-2-yl)-N7-(β-D-ribofuranosyl)-pyrrolo[2,3-d]pyrimidine] | 8.97 µM | 0.86 µM | 4.6 µM | – | 2.39 µM | > 64 µM | > 64 µM | – | – | – | – | – | –
Nc1ncnc2c1c(-c1ccc([N+](=O)[O-])cc1)cn2[C@@H]1O[C@H](CO)C[C@H]1O [FH9582, 4-amino-5-(4-nitrophenyl)-N7-(3′-deoxy-β-D-ribofuranosyl)-pyrrolo[2,3-d]pyrimidine] | – | – | – | 254 °C (dec.) | – | – | – | 2.1 µM | 0.32 µM | 1.2 µM | > 64 µM | > 64 µM | –
Cc1ccc(-c2cn([C@@H]3O[C@H](CO)[C@@H](O)[C@H]3O)c3ncnc(N)c23)cc1 [TH1011, 4-amino-5-(4-methylphenyl)-N7-(β-D-ribofuranosyl)-pyrrolo[2,3-d]pyrimidine] | 29.1 µM | 0.06 µM | – | 165 °C | 1.5 µM | 26.2 µM | 26.2 µM | – | – | – | – | – | –
Nc1ncnc2c1c(C#Cc1ccccc1)cn2[C@@H]1O[C@H](CO)C[C@H]1O [FH8504, 4-amino-5-phenylethynyl-N7-(3′-deoxy-β-D-ribofuranosyl)-pyrrolo[2,3-d]pyrimidine] | – | – | – | 120 °C | – | – | – | 0.3 µM | 0.12 µM | 3.7 µM | 9.6 µM | 9.6 µM | –
OC[C@@H]1C[C@@H](O)[C@H](n2cc(Br)c3cncnc32)O1 [FH9539, 5-bromo-N7-(3′-deoxy-β-D-ribofuranosyl)-pyrrolo[2,3-d]pyrimidine] | – | – | – | 186 °C | – | – | – | 0.51 µM | 0.91 µM | 36.8 µM | 21 µM | 21 µM | –
CCc1ccc(-c2cn([C@@H]3O[C@H](CO)C[C@H]3O)c3ncnc(N)c23)cc1 [FH10647] | – | – | – | 114 °C | – | – | – | 7.58 µM | 1.5 µM | 1.04 µM | 18.4 µM | 18.4 µM | –
Cc1cc(-c2cn([C@@H]3O[C@H](CO)C[C@H]3O)c3ncnc(N)c23)ccc1Cl [FH10648, 4-amino-5-(3-methyl-4-chlorophenyl)-N7-(3′-deoxy-β-D-ribofuranosyl)-pyrrolo[2,3-d]pyrimidine] | – | – | – | 125 °C | – | – | – | 6.4 µM | 2.09 µM | 0.21 µM | 16.7 µM | 16.7 µM | –
COc1cc(-c2cn([C@@H]3O[C@H](CO)C[C@H]3O)c3ncnc(N)c23)ccc1Cl [FH10649, 4-amino-5-(3-methoxy-4-chlorophenyl)-N7-(3′-deoxy-β-D-ribofuranosyl)-pyrrolo[2,3-d]pyrimidine] | – | – | – | 208 °C | – | – | – | 2.01 µM | 0.54 µM | 0.06 µM | 17.2 µM | 17.2 µM | –
Nc1ncnc2c1c(C(F)(F)F)cn2[C@@H]1O[C@H](CO)C[C@H]1O [FH9526, 4-amino-5-trifluoromethyl-N7-(3′-deoxy-β-D-ribofuranosyl)-pyrrolo[2,3-d]pyrimidine] | – | – | – | 167 °C | – | – | – | 0.94 µM | 1.88 µM | 2.33 µM | 0.66 µM | 0.66 µM | –
